Assay results: patent publication US7329670B1, “Inhibition of RAF kinase using aryl and heteroaryl substituted heterocyclic ureas” (Bayer Pharmaceuticals Corporation, priority 1997, dated 2008)

Row | Compound | melting point [°C]
1 | CC(C)(C)c1cc(NC(=O)Nc2cccc(Cl)c2Cl)c(-c2ccncc2)o1 [Entry 40, N-(2-(4-Pyridinyl)-5-tert-butyl-3-furyl)-N′-(2,3-dichlorophenyl)urea] | 195 to 198
2 | CC(C)(C)c1cc(NC(=O)Nc2cccc(Cl)c2Cl)c(-c2ccccc2)s1 [Entry 41, N-(2-Phenyl-5-tert-butyl-3-thienyl)-N′-(2,3-dichlorophenyl)urea] | 171 to 173
